Measurements taken from patent publication US20170166555A1, “FUNCTIONALISED AND SUBSTITUTED INDOLES AS ANTI-CANCER AGENTS” (Novogen Limited, priority 2013, published 2017).
Like-named read-outs stand apart in the source and are kept apart here.

Key:
Test in all cases: Anti-proliferative assay, cell-titre luminescent reagent, 72 h (GVK-BIO)
Type in all cases: cell-based
[1] = system: A549 non-small cell lung carcinoma cells; settings: Homo sapiens, read-out: IC50/μM Lung (NSLC) A549
Procedure: (§1) The ability of compounds 4001, 4002, 4008, 4010, 4011, 4013-4015, 4018, 4026, 4045-4113 and 4115-4127 to inhibit the proliferation of cancer cells representative of neuroblastoma, melanoma, prostate cancer, colorectal cancer, non-small cell lung carcinoma, and triple negative breast cancer was assessed. These studies were conducted by contract research (GVK-BIO). Briefly, a pre-determined number of cells as calculated from cell growth assays for each of the cell lines employed were seeded into their respective culture medium (using ATCC culture parameters—http://www.atcc.org) and cultured for 24 h at 37° C. and 5% CO2 in 96-well culture plates. Once attached, each cell line was then exposed to various concentrations of each respective analogue (30, 3, 0.3 and 0.03 μM for compounds in Tables 2, 3 and 4; 30, 10, 3, 1, 0.3 and 0.1 μM for compounds in Table 5), cultured for a further 72 h and exposed to cell-titre luminescent reagent (100 μL/well) for a further 30 min). Luminescence was captured using an EnVision multilabel reader and the data for each analogue concentration compared against no treatment control. For compounds in Tables 2-4, semi-log plots of Percent of Control versus concentration were prepared and IC50 determined using linear regression analysis. For compounds in Table 5, cell viability was normalized to control (vehicle alone) and dose-response curves, and half maximal effective concentration (EC50) values were determined using Graph Pad Prism 6 (nonlinear regression sigmoidal dose-response variable slope).

SK-Mel-28 melanoma cells = settings: Homo sapiens
Procedure: as §1

[2] = system: PC3 prostate cancer cells
Procedure: as §1

[3] = system: MDA-MB-231 triple negative breast cancer cells; settings: Homo sapiens
Procedure: as §1

[4] = system: SK-N-SH neuroblastoma cells; settings: Homo sapiens
Procedure: as §1

[5] = system: CaCo2 colorectal cancer cells
Procedure: as §1

[6] = system: DU145 prostate cancer cells; settings: Homo sapiens
Procedure: as §1

[7] = A549, 72 h, 30, 10, 3, 1, 0.3 and 0.1 μM, nonlinear regression (Table 5)
[8] = SK-MEL-28, 72 h, 30, 10, 3, 1, 0.3 and 0.1 μM, nonlinear regression (Table 5)
[9] = 30, 10, 3, 1, 0.3 and 0.1 μM, nonlinear regression (Table 5)
[10] = MDA-MB-231, 72 h, 30, 10, 3, 1, 0.3 and 0.1 μM, nonlinear regression (Table 5)
[11] = SK-N-SH, 30, 10, 3, 1, 0.3 and 0.1 μM, nonlinear regression (Table 5)
[12] = Homo sapiens, Caco-2, 72 h, 30, 10, 3, 1, 0.3 and 0.1 μM, nonlinear regression (Table 5)
[13] = DU-145, 72 h, 30, 10, 3, 1, 0.3 and 0.1 μM, nonlinear regression (Table 5)
[14] = A549, 72 h, 30, 3, 0.3 and 0.03 μM, linear regression (Tables 2-4)
[15] = SK-MEL-28, 72 h, 30, 3, 0.3 and 0.03 μM, linear regression (Tables 2-4)
[16] = 30, 3, 0.3 and 0.03 μM, linear regression (Tables 2-4)
[17] = MDA-MB-231, 72 h, 30, 3, 0.3 and 0.03 μM, linear regression (Tables 2-4)
[18] = SK-N-SH, 30, 3, 0.3 and 0.03 μM, linear regression (Tables 2-4)
[19] = DU-145, 72 h, 30, 3, 0.3 and 0.03 μM, linear regression (Tables 2-4)
[20] = Homo sapiens, Caco-2, 72 h, 30, 3, 0.3 and 0.03 μM, linear regression (Tables 2-4)

Structure (SMILES)	IC50 [1, 7]	IC50 (SK-Mel-28 melanoma cells; [8])	IC50 [2, 9]	IC50 [3, 10]	IC50 [4, 11]	IC50 [5, 12]	IC50 [6, 13]	IC50 [1, 14]	IC50 (SK-Mel-28 melanoma cells; [15])	IC50 [2, 16]	IC50 [3, 17]	IC50 [4, 18]	IC50 [5, 16]	IC50 [6, 19]	IC50 [5, 20]
COc1cccc(NC(=O)c2cccc(Oc3ccc4c(c3)c(C)c(C)n4CCCN(C)C)c2)c1 [Compound 4065, 3-((1-(3-(dimethylamino)propyl)-2,3-dimethyl-1H-indol-5-yl)oxy)-N-(3-methoxyphenyl)benzamide]	4.6 µM	5 µM	6.5 µM	5 µM	5.2 µM	6.5 µM	4.2 µM								
Cc1c(C)n(CCCN(C)C)c2ccc(Oc3cccc(C(=O)Nc4ccccc4)c3)cc12 [Compound 4066, 3-((1-(3-(dimethylamino)propyl)-2,3-dimethyl-1H-indol-5-yl)oxy)-N-phenylbenzamide]	8.5 µM	4.9 µM	10 µM	11.4 µM	5.4 µM	14.8 µM	6.9 µM								
CN(C)CCCn1ccc2cc(Nc3cccc(C(=O)Nc4ccc(F)cc4)c3)ccc21 [Compound 4067, 3-((1-(3-(dimethylamino)propyl)-1H-indol-5-yl)amino)-N-(4-fluorophenyl)benzamide]								4 µM	2.5 µM	4.3 µM	3.8 µM	3.3 µM	4.3 µM	4.3 µM	
COc1ccc(NC(=O)c2cccc(Nc3ccc4c(ccn4CCCN(C)C)c3)c2)cc1 [Compound 4068, 3-((1-(3-(dimethylamino)propyl)-1H-indol-5-yl)amino)-N-(4-methoxyphenyl)benzamide]								2.9 µM	2.7 µM	14.6 µM	2.8 µM	3.5 µM		5.4 µM	> 30 µM
CN(C)CCCn1ccc2cc(Nc3cccc(C(=O)Nc4ccc5c(c4)OCO5)c3)ccc21 [Compound 4069, N-(benzo[d][1,3]dioxol-5-yl)-3-((1-(3-(dimethylamino)propyl)-1H-indol-5-yl)amino)benzamide]								4.2 µM	2.5 µM	9.9 µM	4.2 µM	3.4 µM		4.4 µM	> 30 µM
CN(C)CCCn1ccc2cc(Nc3cccc(C(=O)Nc4cccc(F)c4)c3)ccc21 [Compound 4070, 3-((1-(3-(dimethylamino)propyl)-1H-indol-5-yl)amino)-N-(3-fluorophenyl)benzamide]								2.3 µM	2.5 µM	2.9 µM	1.7 µM	2.2 µM		3.1 µM	1.7 µM
COc1cccc(NC(=O)c2cccc(Nc3ccc4c(ccn4CCCN(C)C)c3)c2)c1 [Compound 4071]								4 µM	4.9 µM	7.6 µM	3.4 µM	3.7 µM		4.7 µM	12 µM
Cc1c(C)n(CCCN(C)C)c2ccc(Nc3cccc(C(=O)Nc4ccc(F)cc4)c3)cc12 [Compound 4072, 3-((1-(3-(dimethylamino)propyl)-2,3-dimethyl-1H-indol-5-yl)amino)-N-(4-fluorophenyl)benzamide]								1.9 µM	3 µM	3.8 µM	1.7 µM	1.7 µM		2.9 µM	2 µM
COc1ccc(NC(=O)c2cccc(Nc3ccc4c(c3)c(C)c(C)n4CCCN(C)C)c2)cc1 [Compound 4073, 3-((1-(3-(dimethylamino)propyl)-2,3-dimethyl-1H-indol-5-yl)amino)-N-(4-methoxyphenyl)benzamide]								3.9 µM	3.1 µM	4.2 µM	3.4 µM	2.6 µM		4 µM	2.8 µM
Cc1c(C)n(CCCN(C)C)c2ccc(Nc3cccc(C(=O)Nc4ccc5c(c4)OCO5)c3)cc12 [Compound 4074, N-(benzo[d][1,3]dioxol-5-yl)-3-((1-(3-(dimethylamino)propyl)-2,3-dimethyl-1H-indol-5-yl)amino)benzamide]								2.5 µM	2.7 µM	22.7 µM	1.5 µM	1.3 µM		2.8 µM	2.4 µM
